# Experimental data reported in patent US7211584B2, “5-HT7 receptor ligands” (Laboratorios del Dr. Esteve, S.A., priority 2004, dated 2007).
# Structures can show the parent of a compound that is named as a salt.
# Target: T1, Human Serotonin Receptor, Subtype 7 (h5HT7) (Homo sapiens, UniProt P34969)
# T1 construct: purchased PerkinElmer 6120512; host or cells: CHO cells (membranes)
# Experiment: Radioligand binding, cloned human serotonin receptor subtype 7 (h5HT7) expressed in CHO cells, [125I]LSD
# Details: h5HT7 in CHO cells on Flashplate; [125I]LSD 0.82 nM; room temperature 240 minutes; triplicate; read-out: 5-HT7 IC-50
# Procedure: Radioligand binding assays were performed using the Cloned Human Serotonin Receptor, Subtype 7 (h5HT7), expressed in CHO cells, coated on Flashplate (Basic FlashPlate Cat.: SMP200) from PerkinElmer (Cat.: 6120512). The protocol assay was essentially the recommended protocol in the Technical Data Sheet by PerkinEmer Life and Analytical Sciences. The Mass membrane protein/well was typically 12 μg and the Receptor/well was about 9–10 fmoles. The Flashplate were let equilibrate at room temperature for one hour before the addition of the components of the assay mixture. The binding buffer was: 50 mM Tris-HCl, pH 7.4, containing 10 mM MgCl2, 0.5 mM EDTA and 0.5% BSA. The radioligand was [^125I]LSD at a final concentration of 0.82 nM. Nonspecific binding was determined with 50 μM of Clozapine. The assay volume was 25 μl. TopSeal-A were applied onto Flashplate microplates and they were incubated at room temperature for 240 minutes in darkness. The radioactivity were quantified by liquid scintillation spectrophotometry (Wallac 1450 Microbeta Trilux) with a count delay of 4 minutes prior to counting and a counting time of 30 seconds per well. Competition binding data were analyzed by using the LIGAND program (Munson and Rodbard, LIGAND: A versatile, computerized approach for characterization of ligand-binding systems. Anal. Biochem. 107: 220–239, 1980) and assays were performed in triplicate determinations for each point.
# T1 sequence (P34969 whole entry): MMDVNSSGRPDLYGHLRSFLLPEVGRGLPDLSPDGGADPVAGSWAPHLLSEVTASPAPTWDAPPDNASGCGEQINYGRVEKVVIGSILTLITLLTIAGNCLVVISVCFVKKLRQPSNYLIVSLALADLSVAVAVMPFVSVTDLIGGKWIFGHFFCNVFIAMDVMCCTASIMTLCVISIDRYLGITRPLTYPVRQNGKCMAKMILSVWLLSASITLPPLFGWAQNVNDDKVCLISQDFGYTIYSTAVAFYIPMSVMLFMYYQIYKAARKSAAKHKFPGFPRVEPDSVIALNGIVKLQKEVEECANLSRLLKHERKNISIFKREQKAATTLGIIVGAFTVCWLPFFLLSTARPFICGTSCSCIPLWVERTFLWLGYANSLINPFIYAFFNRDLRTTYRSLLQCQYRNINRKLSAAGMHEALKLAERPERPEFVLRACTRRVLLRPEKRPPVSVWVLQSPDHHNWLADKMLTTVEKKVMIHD
row,IC50 [nM],SMILES
1,112,"COc1cc(C)c(S(=O)(=O)NCCCN2CCc3ccccc3C2)c(C)c1C [Compound 40, N-[3-(3,4-Dihydro-1H-isoquinolin-2-yl)-propyl]-4-methoxy-2,3,6-trimethyl-benzenesulfonamidehydrochloride]"
2,136,"O=S(=O)(NCCCN1CCc2ccccc2C1)c1ccccc1 [Compound 35, N-[3-(3,4-Dihydro-1H-isoquinolin-2-yl)-propyl]-benzenesulfonamidehydrochloride]"

# The remaining lines, values behind:
row,SMILES,IC50 [nM]
1,"O=S(=O)(NCCCN1CCc2ccccc2C1)c1cccc2ccccc12 [Compound 33, Naphthalene-1-sulfonic acid[3-(3,4-dihydro-1H-isoquinolin-2-yl)-propyl]-amide hydrochloride]",384
2,"COc1cc2c(cc1OC)CN(CCCNS(=O)(=O)c1cc(Cl)ccc1Cl)CC2 [Compound 43, 2,5-Dichloro-N-[3-(6,7-dimethoxy-3,4-dihydro-1H-isoquinolin-2-yl)-propyl]-benzenesulfonamidehydrochloride]",89.5
3,"COc1cc2c(cc1OC)CN(CCCNS(=O)(=O)c1cc(Cl)c(F)cc1F)CC2 [Compound 48, 5-Chloro-N-[3-(6,7-dimethoxy-3,4-dihydro-1H-isoquinolin-2-yl)-propyl]-2,4-difluoro-benzenesulfonamide]",64.8
